From patent US20100016440A1, “ALPHA-AMINOAMIDE DERIVATIVES USEFUL AS ANTI-INFLAMMATORY AGENTS” (NEWRON PHARMACEUTICALS S.P.A., priority 2003, published 2010)

Columns and labels:
[1] = system: paw edema induced by carrageenan; assay: Paw edema carrageenan-induced inflammation; type: in vivo, rat; conditions: for volume of paw edema (mean Δml ± s.e. vs basal paw volume): 60' after carrageenan, po 1 h before carrageenan, male Wistar rats; for volume of paw edema (mean Δml ± s.e. vs basal paw volume) / reduction of edema vs. the control vehicle (inhibition): Compound A 30 mg/kg, indomethacin 5 mg/kg; for reduction of edema vs. the control vehicle (inhibition): 4 h after carrageenan injection, oral
Source text: The anti-inflammatory activity of the α-aminoamide compounds of formula (I) have proven effective in a rat model of inflammation induced by carrageenan injection.
The potential anti-inflammatory effect of (S)-(+)-2-[4-(2-fluorobenzyloxy)-benzylamino]-propanamide (“compound A”) was investigated in the rat model of inflammatory acute pain induced by subplantar injection of carrageenan. Itraplantar injection of carrageenan elicit a time-dependent increase in paw volume.
Male Wistar rats of 175-200 grams were used. The left hind paw was injected with 100 μl of carrageenan (2% w/v in saline). Compound A (30 mg/kg), indomethacin (5 mg/kg), or control vehicle (such as distilled water) were orally administered 1 h before carrageenan injection. The paw volume was measured with a plethysmometer (Ugo Basile) immediately before (basal) and 1, 2, 3, 4 and 5 h after the carrageenan injection.

[2] = system: inflamed joint induced by carrageenan; conditions: cited from earlier work
[3] = system: KCl-evoked SP release from spinal cord superfused synaptosomes; assay: Substance P (SP) release from rat spinal cord synaptosomes; type: cell-based; conditions: KCl (35 mM) evoked, RIA, concentrations 0.1 to 30 μM, read-out: IC50 for reducing evoked SP release
Experimental: Male adult Sprague-Dawley rats were used. Following decapitation, the spinal cord was removed and homogenized in sucrose buffer 0.32 M pH 7.4. Samples were centrifuged at 12000 g for 20 minutes and the synaptosomal fraction was resuspended in physiological buffer. SP release from spinal cord superfused synaptosomes was induced by KCl (35 mM) and measured by RIA method (see Lee C M. et al. (1980) “The development and application of a novel N-terminal directed substance P antiserum”, Life Science 27 (7):535-543).

Compound | volume of paw edema (mean Δml ± s.e. vs basal paw volume) [1] [mL] | reduction of edema vs. the control vehicle (inhibition) [1] | mechanical hyperalgesia (in words) [2] | swelling and stiffness of the inflamed joint (in words) [2] | paw edema formation (in words) ([1]; Compound A 30 mg/kg oral, 1-5 h after carrageenan) | IC50 [3] [nM]
COc1ccc2c(c1)c(CC(=O)O)c(C)n2C(=O)c1ccc(Cl)cc1 [Indomethacin, indomethacin] | 0.29 ± 0.04 | about 50% | – | – | – | –
C[C@@H](CN1CC[C@@]2(C)c3cccc(O)c3C[C@@H]1C2(C)C)OCc1ccccc1 [crobenetine] | – | – | able to reverse the mechanical hyperalgesia | without any effect | – | –
C[C@H](NCc1ccc(OCc2ccccc2F)cc1)C(N)=O [Compound A, (S)-(+)-2-[4-(2-fluorobenzyloxy)-benzylamino]-propanamide] | 0.19 ± 0.03 | 40% | – | – | prevented paw edema formation at all time points considered | 2120
Cc1cccc(C)c1OCC(C)N (stereo not shown) [mexeletine] | – | – | able to reverse the mechanical hyperalgesia | without any effect | – | –
